Results on nine molecules are retold here after patent publication US20240208895A1, “BRANCHED-CHAIN AMINO ACID DERIVATIVES TO TREAT DISEASE” (INTRABIO LTD., priority 2021, published 2024).

Read-outs that look alike come from different tables or passages of the source.

One may read the Ki as the dissociation constant of the complex between target and ligand, obtained from inhibition or displacement. The IC50 is the concentration that inhibits the measured activity by half. A high value points to lower potency. The term Km denotes the concentration of substrate that gives half-maximal velocity.

The procedure of series [1]:
(§1) A Compound of the Disclosure is incubated at 1 μM, 10 μM and 100 μM with pooled liver S9 fractions from human (mixed gender) and mouse (CD1) at 1.5 mg/mL in 300 μL buffer containing phosphate 100 mM, MgCl2 2 mM, pH 7.4 at 37° C. for 0, 10, 20, 40, 60 min.
(§2) Enzyme kinetic data for uptake and metabolism of a Compound of the Disclosure is analysed by fitting the Michaelis-Menten equation to the data. V0=Vmax[S]/Km+[S], where V0 is initial velocity, [S] is substrate concentration, Vmax is maximum velocity and Km is substrate concentration at half Vmax. All fitting is performed using GraphPad Prism 8.4 software (GraphPad Software Inc). No weighting scheme is applied.

How the values of series [2] were obtained:
as §1, §2
The source holds these as a separate data set.

Series [3] deals with T1, monocarboxylate transporter (MCT1) (Homo sapiens, UniProt P53985).
T1 sequence (P53985 1-500): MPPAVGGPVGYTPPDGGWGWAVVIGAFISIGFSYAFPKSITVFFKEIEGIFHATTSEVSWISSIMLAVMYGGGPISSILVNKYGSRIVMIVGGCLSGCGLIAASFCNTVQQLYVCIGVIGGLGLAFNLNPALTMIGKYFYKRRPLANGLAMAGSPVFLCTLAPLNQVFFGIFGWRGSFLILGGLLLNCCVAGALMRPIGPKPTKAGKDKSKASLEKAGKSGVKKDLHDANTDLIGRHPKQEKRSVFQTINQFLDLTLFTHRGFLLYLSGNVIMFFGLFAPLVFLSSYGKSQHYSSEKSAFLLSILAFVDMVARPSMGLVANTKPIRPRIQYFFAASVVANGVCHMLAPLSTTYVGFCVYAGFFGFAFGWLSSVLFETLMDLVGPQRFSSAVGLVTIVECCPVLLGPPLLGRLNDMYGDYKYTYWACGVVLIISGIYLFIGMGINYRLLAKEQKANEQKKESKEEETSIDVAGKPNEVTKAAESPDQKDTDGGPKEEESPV
The series can be described thus: Inhibition of MCT1 uptake of known substrate 2-thiophene glyoxylate. The class given is cell-based. Also noted: expressed in transfected cells. The method, then:
FIG. 4(c) is a line graph showing concentration-inhibition curves for the inhibition of uptake of the known substrate 2-thiophene glyoxylate (500 μM) for MCT1. DMSO (0.5%) was the solvent control (SC) and the known inhibitor phloretin (500 μM) was the positive control (PC).
FIG. 4(d) is a line graph showing concentration-inhibition curves for the inhibition of uptake of the known substrate 2-thiophene glyoxylate (500 μM) for MCT1. DMSO (0.5%) was the solvent control (SC) and the known inhibitor phloretin (500 μM) was the positive control (PC).
The known probe substrates used as positive controls are 3 μM chlorothiazide for OAT1, 2 μM estrone-3-sulfate for OAT3, 10 μM gabapentin for LAT1, 50 μM Gly-Sar for PepT1, 500 μM thiophene-2-glyoxylic acid for MCT1.
The IC50 value for the test item is determined by fitting the Hill equation in the following form:
where A % is the percent activity remaining (the mean cellular uptake observed in the solvent control sample set to 100% and the mean cellular uptake observed in the presence of the positive control inhibitor set to 0%), Top and Bottom are the upper and lower plateau of A %. [I] is the inhibitor concentration and IC50 is the inhibitor concentration where the remaining activity is at the midpoint between the Top and Bottom.

Series [4] addresses T2, human transporter MCT1 (Homo sapiens, UniProt P53985).
T2 construct: expressed in transfected cells; host or cells: MDCK-II
T2 sequence (P53985 1-500): T1 sequence (P53985 1-500)
The series can be described thus: Human MCT1-mediated transport in MDCK-II cells (Example 9). The class given is cell-based. The conditions noted are these: MDCK-II cells expressing human MCT1, pH 5.5, 1 minute, normalized to Vmax of thiophene-2-glyoxylic acid. On the procedure:
Representative Compounds of the Disclosure are tested in (i) MDCK-II cells expressing human transporter MCT1; and (ii) MDCK-II cells transfected with a control vector (GFP) as control cells for human transporter MCT1. 2-Thiophene-glyoxylic acid (TPGA) is the positive control for transport.
• 1. A stock solution is prepared with the test article (Compound of the Disclosure) in DMSO or in HBSS-Bis-Tris. • 2. Final assay solutions of probe substrate or test article contain 0.5% (v/v) DMSO (vehicle control). • 3. Test article concentrations are 10 μM, 30 μM, 100 μM, 300 μM, 1000 μM, 3000 μM, and 10000 μM.
MDCK-II cells are maintained in DMEM with low glucose and 10% FBS. Cells passages up to 40 are seeded at 60K±10K cells/well on 96-well, transwell membrane plates approximately 24 hours before transfection. Transport assays are carried out approximately 48 hours after transfection.
• 1. Test system: • a. Test system: 96-well cell culture plate with wells containing a monolayer of MDCK-II cells grown on a permeable support and a corresponding 96-well receiver tray. Cell plates are maintained at 37° C. in 5% CO2 atmosphere prior to initiation of the transport experiment. • b. Pre-incubation is conducted in HBSS, pH 7.4. Transport experiments are conducted in HBSS with Bis-Tris, pH 5.5, without phenol red. Pre-incubation and incubation are conducted at ambient temperatures. • c. Each condition is run in triplicate wells. • d. […] The result from the control cells is used to correct for substrate permeation by routes other than the transporter being investigated in the study. • 2. Prepare the 96-well plate as follows: • a. Wash the basal side of the culture plate insert with HBSS three times. After the final wash, blot the basal side of the wells and keep this side dry. • b. Wash the culture plate wells with HBSS three times. The wells of the culture plate serve as the apical compartment. • 3. Aspirate the final wash from the culture plate. The wells of the culture plate serve as the apical compartment. Add 100 μL of HBSS pH 7.4 pre-incubation buffer containing vehicle to the apical compartments. • 4. Incubate the plates with orbital shaking at approximately 60 RPM for the pre-incubation time specified in Table 1 of this protocol. • 5. Aspirate the pre-incubation buffer from the apical compartment of the plates. Add 100 μL of the experimental buffer that is prepared as follows and maintained at ambient temperatures. • a. For the probe substrate transport assay, the HBSS with Bis-Tris, pH 5.5 in each well contains the probe substrate at 500 μM (positive control for transport) and vehicle control. • b. For the test article assays, the HBSS with Bis-Tris, pH 5.5 in each well contains the test article at 10 μM, 30 μM, 100 μM, 300 μM, 1000 μM, 3000 μM, and 10000 μM. • 6. Incubate at ambient temperature with orbital shaking at approximately 60 RPM for the incubation time of 1 minute. • 7. […]
• 1. The amount of radiolabeled probe substrate will be quantified with radiometric detection on a 1450 Microbeta (Perkin-Elmer). • 2. The amount of non-radiolabeled probe substrate or test article will be quantified by LC-MS/MS. • 3. […] For uptake assays, the net transporter-mediated uptake rate (V) of the substrate by each SLC transporter will be calculated as follows:
[formula] • 5. For transport kinetics assessment, Km and Vmax will be calculated by non-linear regression using the Michaelis-Menten equation. • 6. […]

The target of series [5] is T3, LAT1 (Homo sapiens, UniProt Q01650).
T3 construct: expressed in transfected cells
Kind of series: LAT1 transporter-mediated cellular uptake (substrate test). The class given is cell-based. The conditions noted are these: uptake 3 min, 37° C. The method, then:
DMSO (0.5%) was the solvent control (SC) and the known inhibitor for the positive control (PC) was JPH203 (10 μM). Data were fit to either the Michaelis-Menten equation for uptake or the Hill equation for inhibition using the solvent control to define the top and the positive control inhibitor to define the bottom. Symbols represent the mean±SEM, n=3.
Human OAT1 (SLC22A6) and OAT3 (SLC22A8) overexpressing HEK-293 cells and control cells without transfected transporter (Corning® TransportoCells™) are plated to 24-well plates and cellular uptake of 10 to 100 μg/mL of a Compound of the Disclosure is measured in the absence and presence of transporter inhibitors. Uptake of a Compound of the Disclosure into control cells is measured only without chemical inhibitors. […] Cells are grown in DMEM (Gibco 4196, high glucose, without sodium pyruvate) supplemented with MEM non-essential amino acids and 10% fetal bovine serum. Cells are re-fed with fresh medium after attachment (4-6 hours post-seeding). Cell are plated at a density of 4×10^5/well in 24-well plates coated with poly-D-lysine. Transporter assays are conducted in 400 μL of HBSS supplemented with 10 mM Hepes, pH 7.4
The known probe substrates used as positive controls are 3 μM chlorothiazide for OAT1, 2 μM estrone-3-sulfate for OAT3, 10 μM gabapentin for LAT1, 50 μM Gly-Sar for PepT1, 500 μM thiophene-2-glyoxylic acid for MCT1. […]

The subject of series [6] is glycosphingolipid (GSL) biosynthesis. The conditions noted are these: LSDs; cited from earlier work.
Substrate in series [7]: CC(=O)N[C@H](CC(C)C)C(=O)O
Kind of series: cells, lysate or membranes. Conditions: other: uptake 1 min, room temperature.

T3 sequence (Q01650 whole entry): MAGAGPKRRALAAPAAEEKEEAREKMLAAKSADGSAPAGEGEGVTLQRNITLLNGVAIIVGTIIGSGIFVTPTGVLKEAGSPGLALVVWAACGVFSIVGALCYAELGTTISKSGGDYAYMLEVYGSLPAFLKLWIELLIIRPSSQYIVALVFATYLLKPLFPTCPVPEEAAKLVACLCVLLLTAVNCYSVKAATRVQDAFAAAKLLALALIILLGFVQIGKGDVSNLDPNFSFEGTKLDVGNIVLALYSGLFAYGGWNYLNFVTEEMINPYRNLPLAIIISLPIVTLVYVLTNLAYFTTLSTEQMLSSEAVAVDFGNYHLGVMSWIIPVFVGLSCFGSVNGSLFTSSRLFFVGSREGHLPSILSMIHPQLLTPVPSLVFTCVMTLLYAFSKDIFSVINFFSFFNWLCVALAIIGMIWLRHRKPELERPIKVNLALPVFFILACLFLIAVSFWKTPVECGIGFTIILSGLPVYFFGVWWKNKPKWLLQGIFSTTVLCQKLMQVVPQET
T3 sequence (P08195 102-630 partner): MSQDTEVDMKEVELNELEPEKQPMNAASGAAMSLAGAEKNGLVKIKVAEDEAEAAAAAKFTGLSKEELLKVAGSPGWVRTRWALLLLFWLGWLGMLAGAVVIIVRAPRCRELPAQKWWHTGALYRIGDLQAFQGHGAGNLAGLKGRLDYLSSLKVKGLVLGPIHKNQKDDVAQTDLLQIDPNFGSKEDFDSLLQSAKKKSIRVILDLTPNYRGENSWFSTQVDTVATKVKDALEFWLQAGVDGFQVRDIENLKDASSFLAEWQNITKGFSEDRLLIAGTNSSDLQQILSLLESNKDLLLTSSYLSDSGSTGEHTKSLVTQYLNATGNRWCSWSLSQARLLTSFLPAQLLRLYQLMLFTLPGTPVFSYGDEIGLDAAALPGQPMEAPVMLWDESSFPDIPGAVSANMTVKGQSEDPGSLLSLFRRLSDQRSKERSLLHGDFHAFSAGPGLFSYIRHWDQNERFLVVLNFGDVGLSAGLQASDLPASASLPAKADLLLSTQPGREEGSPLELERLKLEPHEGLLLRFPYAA

`[2H]C([2H])([2H])C([2H])(C([2H])([2H])[2H])C([2H])([2H])C([2H])(NC(C)=O)C(=O)O` (racemic) [N-acetyl-DL-[^2H10]leucine]: in series [1], the “Vmax, metabolism” value worked out at 2.6 µmol/min/mg and the “disappearance, asymptote as % of the initial concentration” value is reported as about 50%. Also, in series [2], the “Vmax, metabolism” value turned out to be 6.8 µmol/min/mg and the “disappearance, asymptote as % of the initial concentration” value was about 50%.

With `CC(=O)N[C@H](CC(C)C)C(=O)O` [N-acetyl-D-leucine], the Ki in series [3] (assuming competitive inhibition, read-out: affinity (Ki) for MCT1, Cheng-Prusoff equation) was 1.6 mM. For the same molecule, the IC50 in series [3] (probe substrate 2-thiophene glyoxylate 500 μM) worked out at 11 mM.

On to `COC(=O)[C@H](CC(C)C)NC(C)=O` [N-acetyl-L-leucine methyl ester], for which the “uptake mediated by MCT1” value in series [4] was “greatly reduced transport”.

In the case of `COC(=O)[C@@H](NC(C)=O)C(C)C` [N-acetyl-L-valine methyl ester], the “uptake mediated by MCT1” value in series [4] is “greatly reduced transport”.

On to `CC(=O)N[C@@H](CC(C)C)C(=O)O` [N-acetyl-leucine], for which the “substrate of LAT1 (uptake)” value in series [5] was “neither a substrate”.

As for `CCC(=O)N[C@H](C(=O)O)[C@@H](C)CC` [N-propionyl-L-isoleucine], the “uptake mediated by MCT1” value in series [4] is listed as “transported”.

Turning to `CCC(=O)N[C@H](C(=O)O)C(C)C` [N-propionyl-L-valine], the “uptake mediated by MCT1” value in series [4] is reported as “transported”.

Take `CCCCN1C[C@H](O)[C@@H](O)[C@H](O)[C@H]1CO` [miglustat]: the “benefit in clinical trial of substrate reduction therapy” value in series [6] is given as “Some benefit”.

B1: monocarboxylate transporter (MCT1) (Homo sapiens) (protein)
chain: T1 sequence (P53985 1-500)
Take B1: in series [7], the Km came to 1000 µM.
